Experimental data published in patent US12662490B2, “Heterocyclic compounds” (Hoffmann-La Roche Inc., priority 2019, dated 2026).

target: T1, MAGL (Homo sapiens, UniProt Q99685); experiment: 2-AG assay (MAGL inhibitory activity; hydrolysis of 2-arachidonoylglycerol to arachidonic acid followed by mass spectrometry); format: biochemical; conditions: 15 min preincubation at RT, 8 μM 2-arachidonoylglycerol, 30 min at RT, RapidFire MS readout
T1 sequence (Q99685 1-303): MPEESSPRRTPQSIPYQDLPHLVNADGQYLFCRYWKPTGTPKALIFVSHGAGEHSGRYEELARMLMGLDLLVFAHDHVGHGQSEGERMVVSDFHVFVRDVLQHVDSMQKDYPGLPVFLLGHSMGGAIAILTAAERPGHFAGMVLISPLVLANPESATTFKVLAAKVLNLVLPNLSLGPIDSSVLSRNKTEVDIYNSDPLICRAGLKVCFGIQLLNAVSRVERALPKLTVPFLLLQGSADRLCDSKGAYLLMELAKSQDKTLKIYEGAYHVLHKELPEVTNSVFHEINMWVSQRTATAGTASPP
Procedure: Compounds were profiled for MAGL inhibitory activity by determining the enzymatic activity by following the hydrolysis of the natural substrate 2-arachidonoylglycerol (2-AG) resulting in arachidonic acid, which can be followed by mass spectrometry. This assay is hereinafter abbreviated “2-AG assay”.
The 2-AG assay was carried out in 384 well assay plates (PP, Greiner Cat #784201) in a total volume of 20 μL. Compound dilutions were made in […] (VWR Chemicals 23500.297) in a polypropylene plate in 3-fold dilution steps to give a final concentration range in the assay from 12.5 μM to […]. 0.25 μL compound dilutions (100% DMSO) were added to 9 μL MAGL in assay buffer (50 mM TRIS (GIBCO, 15567-027), 1 mM EDTA (Fluka, 03690-100 mL), 0.010 (v/v) Tween. After shaking, the plate was incubated for 15 min at RT. To start the reaction, 10 μL 2-arachidonoylglycerol in assay buffer was added. The final concentrations in the assay was […] and 8 μM 2-arachidonoylglyerol. After shaking and 30 min incubation at RT, the reaction was quenched by the addition of 40 μL of ACN containing 4 μM of d8-arachidonic acid. The amount of arachidonic acid was traced by an online SPE system (Agilent Rapidfire) coupled to a triple quadrupole mass spectrometer (Agilent 6460). A C18 SPE cartridge (G9205A) was used in an ACN/water liquid setup. The mass spectrometer was operated in negative electrospray mode following the mass transitions 303.1→259.1 for arachidonic acid and 311.1→267.0 for d8-arachidonic acid. The activity of the compounds was calculated based on the ratio of intensities [arachidonic acid/d8-arachidonic acid].

Row | IC50 | SMILES
1 | 575 nM | COc1cccc(C(=O)N2CCN3C[C@H](c4ccc(F)c(-c5ccccc5)c4)OC[C@@H]3C2)c1Cl [Example 12, [(3S,9aS)-3-(4-fluoro-3-phenyl-phenyl)-3,4,6,7,9,9a-hexahydro-1H-pyrazino[2,1-c][1,4]oxazin-8-yl]-(2-chloro-3-methoxy-phenyl)methanone]
2 | 238 nM | CC#Cc1cc([C@@H]2CN3CCN(C(=O)c4cccc(OC)c4Cl)C[C@H]3CO2)ccc1F [Example 13, [(3R,9aS)-3-(4-fluoro-3-prop-1-ynyl-phenyl)-3,4,6,7,9,9a-hexahydro-1H-pyrazino[2,1-c][1,4]oxazin-8-yl]-(2-chloro-3-methoxy-phenyl)methanone]
3 | 154 nM | COc1cccc(C(=O)N2CCN3C[C@@H](c4ccc(F)c(C#N)c4)OC[C@@H]3C2)c1Cl [Example 14, [(3R,9aS)-3-(3-cyano-4-fluoro-phenyl)-3,4,6,7,9,9a-hexahydro-1H-pyrazino[2,1-c][1,4]oxazin-8-yl]-(2-chloro-3-methoxy-phenyl)methanone]
4 | 132 nM | O=C(c1cnc2ccccc2c1Cl)N1CCN2C[C@@H](c3ccc(F)c(Cl)c3)OC[C@@H]2C1 [Example 16, [(3R,9aS)-3-(3-chloro-4-fluoro-phenyl)-3,4,6,7,9,9a-hexahydro-1H-pyrazino[2,1-c][1,4]oxazin-8-yl]-(4-chloro-3-quinolyl)methanone]
5 | 4570 nM | COc1cc(OC)c(Cl)c(C(=O)N2CCN3C[C@H](c4ccc(F)c(Cl)c4)OC[C@@H]3C2)c1 [Example 17, [(3S,9aS)-3-(3-chloro-4-fluoro-phenyl)-3,4,6,7,9,9a-hexahydro-1H-pyrazino[2,1-c][1,4]oxazin-8-yl]-(2-chloro-3,5-dimethoxy-phenyl)methanone]
6 | 51.2 nM | COc1cc(OC)c(Cl)c(C(=O)N2CCN3C[C@@H](c4ccc(F)c(Cl)c4)OC[C@@H]3C2)c1 [Example 18, [(3R,9aS)-3-(3-chloro-4-fluoro-phenyl)-3,4,6,7,9,9a-hexahydro-1H-pyrazino[2,1-c][1,4]oxazin-8-yl]-(2-chloro-3,5-dimethoxy-phenyl)methanone]
7 | 305 nM | COc1ccc(C(=O)N2CCN3C[C@@H](c4ccc(F)c(Cl)c4)OC[C@@H]3C2)c(Cl)c1OC [Example 19, [(3R,9aS)-3-(3-chloro-4-fluoro-phenyl)-3,4,6,7,9,9a-hexahydro-1H-pyrazino[2,1-c][1,4]oxazin-8-yl]-(2-chloro-3,4-dimethoxy-phenyl)methanone]
8 | 121 nM | Cc1cccc(C(=O)N2CCN3C[C@@H](c4ccc(F)c(Cl)c4)OC[C@@H]3C2)c1C#N [Example 20, 2-[(3R,9aS)-3-(3-chloro-4-fluoro-phenyl)-3,4,6,7,9,9a-xahydro-1H-pyrazino[2,1-c][1,4]oxazine-8-carbonyl]-6-methyl-benzonitrile]
9 | 746 nM | O=C(c1cccc(OC(F)(F)F)c1F)N1CCN2C[C@@H](c3ccc(F)c(Cl)c3)OC[C@@H]2C1 [Example 21, [(3R,9aS)-3-(3-chloro-4-fluoro-phenyl)-3,4,6,7,9,9a-hexahydro-1H-pyrazino[2,1-c][1,4]oxazin-8-yl]-[2-fluoro-3-(trifluoromethoxy)phenyl]methanone]
10 | 16.1 nM | O=C(c1cccc(-c2ccccc2)c1Cl)N1CCN2C[C@@H](c3ccc(F)c(Cl)c3)OC[C@@H]2C1 [Example 22, [(3R,9aS)-3-(3-chloro-4-fluoro-phenyl)-3,4,6,7,9,9a-hexahydro-1H-pyrazino[2,1-c][1,4]oxazin-8-yl]-(2-chloro-3-phenyl-phenyl)methanone]
11 | 26.3 nM | COc1ccccc1-c1cccc(C(=O)N2CCN3C[C@@H](c4ccc(F)c(Cl)c4)OC[C@@H]3C2)c1Cl [Example 23, [(3R,9aS)-3-(3-chloro-4-fluoro-phenyl)-3,4,6,7,9,9a-hexahydro-1H-pyrazino[2,1-c][1,4]oxazin-8-yl]-[2-chloro-3-(2-methoxyphenyl)phenyl]methanone]
12 | 94.8 nM | COc1cccc(C(=O)N2CCN3C[C@@H](c4ccc(F)c(C5CC5)c4)OC[C@@H]3C2)c1Cl [Example 24, [(3R,9aS)-3-(3-cyclopropyl-4-fluoro-phenyl)-3,4,6,7,9,9a-hexahydro-1H-pyrazino[2,1-c][1,4]oxazin-8-yl]-(2-chloro-3-methoxy-phenyl)methanone]
13 | 131 nM | O=C(c1cccc(OC(F)F)c1Cl)N1CCN2C[C@@H](c3ccc(F)c(Cl)c3)OC[C@@H]2C1 [Example 25, [(3R,9aS)-3-(3-chloro-4-fluoro-phenyl)-3,4,6,7,9,9a-hexahydro-1H-pyrazino[2,1-c][1,4]oxazin-8-yl]-[2-chloro-3-(difluoromethoxy)phenyl]methanone]
14 | 10.6 nM | Cc1[nH]ncc1-c1cccc(C(=O)N2CCN3C[C@@H](c4ccc(F)c(Cl)c4)OC[C@@H]3C2)c1Cl [Example 26, [(3R,9aS)-3-(3-chloro-4-fluoro-phenyl)-3,4,6,7,9,9a-hexahydro-1H-pyrazino[2,1-c][1,4]oxazin-8-yl]-[2-chloro-3-(5-methyl-1H-pyrazol-4-yl)phenyl]methanone]
15 | 210 nM | Cc1ccncc1-c1cccc(C(=O)N2CCN3C[C@@H](c4ccc(F)c(Cl)c4)OC[C@@H]3C2)c1Cl [Example 27, [(3R,9aS)-3-(3-chloro-4-fluoro-phenyl)-3,4,6,7,9,9a-hexahydro-1H-pyrazino[2,1-c][1,4]oxazin-8-yl]-[2-chloro-3-(4-methyl-3-pyridyl)phenyl]methanone]
16 | 32.6 nM | Cc1cnccc1-c1cccc(C(=O)N2CCN3C[C@@H](c4ccc(F)c(Cl)c4)OC[C@@H]3C2)c1Cl [Example 28, [(3R,9aS)-3-(3-chloro-4-fluoro-phenyl)-3,4,6,7,9,9a-hexahydro-1H-pyrazino[2,1-c][1,4]oxazin-8-yl]-[2-chloro-3-(3-methyl-4-pyridyl)phenyl]methanone]
17 | 202 nM | O=C(c1cccc(-c2ccnnc2)c1Cl)N1CCN2C[C@@H](c3ccc(F)c(Cl)c3)OC[C@@H]2C1 [Example 29, [(3R,9aS)-3-(3-chloro-4-fluoro-phenyl)-3,4,6,7,9,9a-hexahydro-1H-pyrazino[2,1-c][1,4]oxazin-8-yl]-(2-chloro-3-pyridazin-4-yl-phenyl)methanone]
18 | 49.2 nM | O=C(c1cccc(-c2ccccn2)c1Cl)N1CCN2C[C@@H](c3ccc(F)c(Cl)c3)OC[C@@H]2C1 [Example 30, [(3R,9aS)-3-(3-chloro-4-fluoro-phenyl)-3,4,6,7,9,9a-hexahydro-1H-pyrazino[2,1-c][1,4]oxazin-8-yl]-[2-chloro-3-(2-pyridyl)phenyl]methanone]
19 | 173 nM | O=C(c1cccc(-c2cccnn2)c1Cl)N1CCN2C[C@@H](c3ccc(F)c(Cl)c3)OC[C@@H]2C1 [Example 31, [(3R,9aS)-3-(3-chloro-4-fluoro-phenyl)-3,4,6,7,9,9a-hexahydro-1H-pyrazino[2,1-c][1,4]oxazin-8-yl]-(2-chloro-3-pyridazin-3-yl-phenyl)methanone]
20 | 1440 nM | Cc1ccnnc1-c1cccc(C(=O)N2CCN3C[C@@H](c4ccc(F)c(Cl)c4)OC[C@@H]3C2)c1Cl [Example 34, [(3R,9aS)-3-(3-chloro-4-fluoro-phenyl)-3,4,6,7,9,9a-hexahydro-1H-pyrazino[2,1-c][1,4]oxazin-8-yl]-[2-chloro-3-(4-methylpyridazin-3-yl)phenyl]methanone]
